Laboratory results from patent US20250145665A1, “MACROCYCLIC PEPTIDES USEFUL AS MODULATORS OF TNF ALPHA” (Bristol-Myers Squibb Company, priority 2023, published 2025).
Like-named read-outs stand apart in the source and are kept apart here. Positions of bridges follow the written chain, without caps; N, C: chain ends. Non-standard residues stand in square brackets, D forms with d. Residues, ends and D or L forms follow the SMILES beside them. Bip(4'-COOH) = N[C@@H](Cc1ccc(-c2ccc(C(=O)O)cc2)cc1)C(=O)O; Ala(morpholin-4-yl) = N[C@@H](CN1CCOCC1)C(=O)O; Bip = N[C@@H](Cc1ccc(-c2ccccc2)cc1)C(=O)O; Morpholine(3S-CO) = O=C(O)[C@@H]1COCCN1; Val(3-OH) = CC(C)(O)[C@H](N)C(=O)O; 2Pal = N[C@@H](Cc1ccccn1)C(=O)O; Tic = O=C(O)[C@@H]1Cc2ccccc2CN1; Aze = O=C(O)[C@@H]1CCN1; Sar = CNCC(=O)O

Target: TNFα (Homo sapiens, UniProt P01375)
Sequence (P01375 77-233 limits assumed): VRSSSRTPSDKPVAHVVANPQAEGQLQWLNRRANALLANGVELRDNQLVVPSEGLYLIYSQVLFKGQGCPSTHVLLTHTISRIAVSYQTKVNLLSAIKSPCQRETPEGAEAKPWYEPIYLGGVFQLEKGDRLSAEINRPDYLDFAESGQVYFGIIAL
Assay: TNF-Induced HEK-Blue Assay
Type: cell-based
[1] = HEK-Blue-CD40L cells, NF-kB-driven secreted alkaline phosphatase reporter, TNFα 0.5 ng/ml, 18 h, read-out: TNF induced HEK-Blue assay IC50 value

Structure (SMILES)	IC50 [1] [nM]	IC50 [nM]
CC(C)C[C@@H]1NC(=O)[C@H](Cc2ccc(O)cc2)NC(=O)[C@H](C(C)C)NC(=O)[C@@H]2CCCN2C(=O)[C@H](C(C)C)NC(=O)[C@@H](CCCNC(=N)N)NC(=O)[C@H](CC(=O)O)NC(=O)[C@H](Cc2ccc(O)cc2)NC(=O)CNC(=O)[C@H](Cc2ccc(-c3ccccc3)cc2)NC(=O)[C@H](Cc2ccc(-c3ccccc3)cc2)NC(=O)[C@H](CN2CCOCC2)NC(=O)CSC[C@@H](C(=O)NCC(N)=O)NC1=O [Example 131] ({CH2CO}-[Ala(morpholin-4-yl)][Bip][Bip]GYD[dR]VPVYLCG-NH2; thioether N-13)	50 to 200	–
CC(C)C[C@@H]1NC(=O)[C@H](CCCNC(=N)N)NC(=O)[C@H](C(C)C)NC(=O)[C@@H]2CCCN2C(=O)[C@H](C(C)C)NC(=O)[C@@H](CCCNC(=N)N)NC(=O)[C@H](CC(=O)O)NC(=O)[C@H](Cc2ccc(O)cc2)NC(=O)CNC(=O)[C@H](Cc2ccc(-c3ccccc3)cc2)NC(=O)[C@H](Cc2ccc(-c3ccccc3)cc2)NC(=O)[C@H](CN2CCOCC2)NC(=O)CSC[C@@H](C(=O)NCC(N)=O)NC1=O [Example 132] ({CH2CO}-[Ala(morpholin-4-yl)][Bip][Bip]GYD[dR]VPVRLCG-NH2; thioether N-13)	50 to 200	–
CC(C)C[C@@H]1NC(=O)[C@H](Cc2ccc(O)cc2)NC(=O)[C@H](C(C)C)NC(=O)[C@@H]2CCCN2C(=O)[C@H](C(C)C)NC(=O)[C@H](CCCNC(=N)N)NC(=O)[C@H](CC(N)=O)NC(=O)[C@@H]2CCCN2C(=O)CN(C)C(=O)[C@H](Cc2ccc(-c3ccccc3)cc2)NC(=O)[C@H](Cc2ccc(-c3ccccc3)cc2)NC(=O)[C@H](CN2CCOCC2)NC(=O)CSC[C@@H](C(=O)NCC(N)=O)NC1=O [Example 133] ({CH2CO}-[Ala(morpholin-4-yl)][Bip][Bip][Sar]PNRVPVYLCG-NH2; thioether N-13)	200 to 2000	–
CC(C)C[C@@H]1NC(=O)[C@H](Cc2ccc(O)cc2)NC(=O)[C@H](C(C)C)NC(=O)CN(C)C(=O)[C@H](C(C)C)NC(=O)[C@@H](CCCNC(=N)N)NC(=O)[C@H](CC(=O)O)NC(=O)[C@H](Cc2ccc(O)cc2)NC(=O)CN(C)C(=O)[C@H](Cc2ccc(-c3ccccc3)cc2)NC(=O)[C@H](Cc2ccc(-c3ccccc3)cc2)NC(=O)[C@H](CN2CCOCC2)NC(=O)CSC[C@@H](C(=O)NCC(N)=O)NC1=O [Example 134] ({CH2CO}-[Ala(morpholin-4-yl)][Bip][Bip][Sar]YD[dR]V[Sar]VYLCG-NH2; thioether N-13)	50 to 200	–
CC(C)C[C@@H]1NC(=O)[C@H](CCCNC(=N)N)NC(=O)[C@H](C(C)C)NC(=O)CN(C)C(=O)[C@H](C(C)C)NC(=O)[C@@H](CCCNC(=N)N)NC(=O)[C@H](CC(=O)O)NC(=O)[C@H](Cc2ccc(O)cc2)NC(=O)CN(C)C(=O)[C@H](Cc2ccc(-c3ccccc3)cc2)NC(=O)[C@H](Cc2ccc(-c3ccccc3)cc2)NC(=O)[C@H](CN2CCOCC2)NC(=O)CSC[C@@H](C(=O)NCC(N)=O)NC1=O [Example 135] ({CH2CO}-[Ala(morpholin-4-yl)][Bip][Bip][Sar]YD[dR]V[Sar]VRLCG-NH2; thioether N-13)	200 to 2000	–
CC(C)C[C@@H]1NC(=O)[C@H](Cc2ccc(O)cc2)NC(=O)[C@H](C(C)C)NC(=O)CN(C)C(=O)[C@H](C(C)C)NC(=O)[C@@H](CCCNC(=N)N)NC(=O)[C@H](CC(=O)O)NC(=O)[C@@H]2CCCN2C(=O)CN(C)C(=O)[C@H](Cc2ccc(-c3ccccc3)cc2)NC(=O)[C@H](Cc2ccc(-c3ccccc3)cc2)NC(=O)[C@H](CN2CCOCC2)NC(=O)CSC[C@@H](C(=O)NCC(N)=O)NC1=O [Example 136] ({CH2CO}-[Ala(morpholin-4-yl)][Bip][Bip][Sar]PD[dR]V[Sar]VYLCG-NH2; thioether N-13)	50 to 200	–
CC(C)C[C@@H]1NC(=O)[C@H](Cc2ccc(O)cc2)NC(=O)[C@H](C(C)C)NC(=O)CNC(=O)[C@H](C(C)C)NC(=O)[C@@H](CCCNC(=N)N)NC(=O)[C@H](CC(=O)O)NC(=O)[C@H](Cc2ccc(O)cc2)NC(=O)CN(C)C(=O)[C@H](Cc2ccc(-c3ccccc3)cc2)NC(=O)[C@H](Cc2ccc(-c3ccccc3)cc2)NC(=O)[C@H](CN2CCOCC2)NC(=O)CSC[C@@H](C(=O)NCC(N)=O)NC1=O [Example 137] ({CH2CO}-[Ala(morpholin-4-yl)][Bip][Bip][Sar]YD[dR]VGVYLCG-NH2; thioether N-13)	200 to 2000	–
CC(C)C[C@@H]1NC(=O)[C@H](CCCNC(=N)N)NC(=O)[C@H](C(C)C)NC(=O)CNC(=O)[C@H](C(C)C)NC(=O)[C@H](CCCNC(=N)N)NC(=O)[C@H](CC(=O)O)NC(=O)[C@H](Cc2ccc(O)cc2)NC(=O)CN(C)C(=O)[C@H](Cc2ccc(-c3ccccc3)cc2)NC(=O)[C@H](Cc2ccc(-c3ccccc3)cc2)NC(=O)[C@H](CN2CCOCC2)NC(=O)CSC[C@@H](C(=O)NCC(N)=O)NC1=O [Example 138] ({CH2CO}-[Ala(morpholin-4-yl)][Bip][Bip][Sar]YDRVGVRLCG-NH2; thioether N-13)	200 to 2000	–
CC(C)C[C@@H]1NC(=O)[C@H](Cc2ccc(O)cc2)NC(=O)[C@H](C(C)C)NC(=O)CNC(=O)[C@H](C(C)C)NC(=O)[C@H](CCCNC(=N)N)NC(=O)[C@H](CC(=O)O)NC(=O)[C@@H]2CCCN2C(=O)CN(C)C(=O)[C@H](Cc2ccc(-c3ccccc3)cc2)NC(=O)[C@H](Cc2ccc(-c3ccccc3)cc2)NC(=O)[C@H](CN2CCOCC2)NC(=O)CSC[C@@H](C(=O)NCC(N)=O)NC1=O [Example 139] ({CH2CO}-[Ala(morpholin-4-yl)][Bip][Bip][Sar]PDRVGVYLCG-NH2; thioether N-13)	200 to 2000	–
CC(C)C[C@@H]1NC(=O)[C@H](Cc2ccc(O)cc2)NC(=O)[C@H](C(C)C)NC(=O)CN(C)C(=O)[C@H](C(C)C)NC(=O)[C@H](CCCNC(=N)N)NC(=O)[C@H](CC(=O)O)NC(=O)[C@H](Cc2ccc(O)cc2)NC(=O)CN(C)C(=O)[C@H](Cc2ccc(-c3ccccc3)cc2)NC(=O)[C@H](Cc2ccc(-c3ccccc3)cc2)NC(=O)[C@H](C(C)(C)O)NC(=O)CSC[C@@H](C(=O)NCC(N)=O)NC1=O [Example 140] ({CH2CO}-[Val(3-OH)][Bip][Bip][Sar]YDRV[Sar]VYLCG-NH2; thioether N-13)	200 to 2000	–
CC(C)C[C@@H]1NC(=O)[C@H](Cc2ccc(O)cc2)NC(=O)[C@H](C(C)C)NC(=O)CN(C)C(=O)[C@H](C(C)C)NC(=O)[C@H](CCCNC(=N)N)NC(=O)[C@H](CC(=O)O)NC(=O)[C@@H]2CCCN2C(=O)CN(C)C(=O)[C@H](Cc2ccc(-c3ccccc3)cc2)NC(=O)[C@H](Cc2ccc(-c3ccccc3)cc2)NC(=O)[C@H](C(C)(C)O)NC(=O)CSC[C@@H](C(=O)NCC(N)=O)NC1=O [Example 141] ({CH2CO}-[Val(3-OH)][Bip][Bip][Sar]PDRV[Sar]VYLCG-NH2; thioether N-13)	50 to 200	–
CC(C)C[C@@H]1NC(=O)[C@H](Cc2ccc(O)cc2)NC(=O)[C@H](C(C)C)NC(=O)CN(C)C(=O)[C@H](C(C)C)NC(=O)[C@H](CCCNC(=N)N)NC(=O)[C@H](CC(=O)O)NC(=O)[C@@H]2CCCN2C(=O)CN(C)C(=O)[C@H](Cc2ccc(-c3ccccc3)cc2)NC(=O)[C@H](Cc2ccc(-c3ccccc3)cc2)NC(=O)[C@H](CC(N)=O)NC(=O)CSC[C@@H](C(=O)NCC(N)=O)NC1=O [Example 142] ({CH2CO}-N[Bip][Bip][Sar]PDRV[Sar]VYLCG-NH2; thioether N-13)	–	200 to 2000
CC(C)C[C@@H]1NC(=O)[C@H](Cc2ccc(O)cc2)NC(=O)[C@H](C(C)C)NC(=O)[C@@H]2COCCN2C(=O)[C@H](C(C)C)NC(=O)[C@@H](CCCNC(=N)N)NC(=O)[C@H](CC(=O)O)NC(=O)[C@H](Cc2ccc(O)cc2)NC(=O)CN(C)C(=O)[C@H](Cc2ccc(-c3ccccc3)cc2)NC(=O)[C@H](Cc2ccc(-c3ccccc3)cc2)NC(=O)[C@H](CN2CCOCC2)NC(=O)CSC[C@@H](C(=O)NCC(N)=O)NC1=O [Example 143] ({CH2CO}-[Ala(morpholin-4-yl)][Bip][Bip][Sar]YD[dR]V[Morpholine(3S-CO)]VYLCG-NH2; thioether N-13)	< 50	–
CC(C)C[C@@H]1NC(=O)[C@H](Cc2ccc(O)cc2)NC(=O)[C@H](C(C)C)NC(=O)[C@@H]2CCCN2C(=O)[C@H](C(C)C)NC(=O)[C@@H](CCCNC(=N)N)NC(=O)[C@H](CC(=O)O)NC(=O)[C@H](Cc2ccccn2)NC(=O)CN(C)C(=O)[C@H](Cc2ccc(-c3ccccc3)cc2)NC(=O)[C@H](Cc2ccc(-c3ccccc3)cc2)NC(=O)[C@H](CN2CCOCC2)NC(=O)CSC[C@@H](C(=O)NCC(N)=O)NC1=O [Example 144] ({CH2CO}-[Ala(morpholin-4-yl)][Bip][Bip][Sar][2Pal]D[dR]VPVYLCG-NH2; thioether N-13)	< 50	–
CC(C)C[C@@H]1NC(=O)[C@H](Cc2ccc(O)cc2)NC(=O)[C@H](C(C)C)NC(=O)[C@@H]2CCN2C(=O)[C@H](CC(N)=O)NC(=O)[C@@H](CCCNC(=N)N)NC(=O)[C@H](CC(=O)O)NC(=O)[C@H](Cc2ccc(O)cc2)NC(=O)CN(C)C(=O)[C@H](Cc2ccc(-c3ccccc3)cc2)NC(=O)[C@H](Cc2ccc(-c3ccc(C(=O)O)cc3)cc2)NC(=O)[C@H](CN2CCOCC2)NC(=O)CSC[C@@H](C(=O)NCC(N)=O)NC1=O [Example 145] ({CH2CO}-[Ala(morpholin-4-yl)][Bip(4'-COOH)][Bip][Sar]YD[dR]N[Aze]VYLCG-NH2; thioether N-13)	< 50	–
CC(C)C[C@@H]1NC(=O)[C@H](Cc2ccc(O)cc2)NC(=O)[C@H](C(C)C)NC(=O)[C@@H]2Cc3ccccc3CN2C(=O)[C@H](CC(N)=O)NC(=O)[C@@H](CCCNC(=N)N)NC(=O)[C@H](CC(=O)O)NC(=O)[C@H](Cc2ccc(O)cc2)NC(=O)CN(C)C(=O)[C@H](Cc2ccc(-c3ccccc3)cc2)NC(=O)[C@H](Cc2ccc(-c3ccc(C(=O)O)cc3)cc2)NC(=O)[C@H](CN2CCOCC2)NC(=O)CSC[C@@H](C(=O)NCC(N)=O)NC1=O [Example 146] ({CH2CO}-[Ala(morpholin-4-yl)][Bip(4'-COOH)][Bip][Sar]YD[dR]N[Tic]VYLCG-NH2; thioether N-13)	< 50	–
CC(C)C[C@@H]1NC(=O)[C@H](Cc2ccc(O)cc2)NC(=O)[C@H](C(C)C)NC(=O)[C@@H]2CCN2C(=O)[C@H](C(C)C)NC(=O)[C@@H](CCCNC(=N)N)NC(=O)[C@H](CC(=O)O)NC(=O)[C@H](Cc2ccc(O)cc2)NC(=O)CN(C)C(=O)[C@H](Cc2ccc(-c3ccccc3)cc2)NC(=O)[C@H](Cc2ccc(-c3ccc(C(=O)O)cc3)cc2)NC(=O)[C@H](CN2CCOCC2)NC(=O)CSC[C@@H](C(=O)NCC(N)=O)NC1=O [Example 147] ({CH2CO}-[Ala(morpholin-4-yl)][Bip(4'-COOH)][Bip][Sar]YD[dR]V[Aze]VYLCG-NH2; thioether N-13)	< 50	–
